Ki and Activity data for 7 compounds are collected here from ChEMBL document CHEMBL1137512, “Synthesis and evaluation of chloromethyl sulfoxides as a new class of selective irreversible cysteine protease inhibitors” (Bioorg Med Chem, 2007).

Activity calls are given as the source filed them. The calls are words filed in the database; no cut-off is given here.

Assay [1] in a line: Inhibition of papain by colorimetric assay.
The nature of assay [2]: Binding affinity to papain at 10 uM by fluorescent binding test.

The compound `C[C@@H](C[S+]([O-])CCl)NC(=O)OC(C)(C)C` (stereo partly drawn) displayed a Ki in assay [1] of 1430 µM. In the case of `CC(C)(C)OC(=O)NCC[S+]([O-])CCl` (stereo not drawn), the result in assay [1] was inactive. On to `CC(C)[C@@H](C[S+]([O-])CCl)NC(=O)OC(C)(C)C` (stereo partly drawn), for which affinity in assay [1] was put at a Ki of 543 µM.

For `CN(C)c1cccc2c(S(=O)(=O)NCC(=O)NCC[S+]([O-])CCl)cccc12` (stereo not drawn), the Ki in assay [1] amounted to 471 µM. The compound further showed an Activity in assay [2] of 40%.

In turn, `CC(C)(C)OC(=O)N[C@@H](Cc1ccccc1)C(=O)NCC[S+]([O-])CCl` (stereo partly drawn) gave an inhibition constant Ki in assay [1] of 3670 µM. That is a millimolar value. The compound `CC(C)C[C@@H](C[S+]([O-])CCl)NC(=O)OC(C)(C)C` (stereo partly drawn) displayed a Ki in assay [1] of 485 µM. Regarding `CC(C)(C)OC(=O)N[C@@H](Cc1ccccc1)C[S+]([O-])CCl` (stereo partly drawn), in assay [1], the Ki is 142 µM.

As usually defined, the Ki is the equilibrium dissociation constant of an inhibitor or competing ligand from its target. A higher Ki goes with a looser hold on the target.
